Experimental data reported in the supplement of paper PMC9663587.

How the values were obtained:
Assay in all cases: GR value, 72 h; higher = faster growth (1 = untreated, <0 = killing);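 also: breast cancer and non-malignant breast epithelial lines, nine half-log doses, viable cells counted by Hoechst and LIVE/DEAD dye imaging versus time-zero plates and DMSO controls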
FMF-03-146-1 = compound: CN1CCN(CC1)C2=CC(=C(C=C2)NC3=NC=C4C(=N3)N(C5=CC=CC=C5C(=O)N4CC(F)(F)F)C)OC [FMF-03-146-1]
[1] = compound: CNc1nc(-c2ccc3c(N)n[nH]c3c2)cc(N2C[C@@H](C(=O)NC3CCCCC3)CC[C@H]2C)n1
Cediranib/AZD2171 = compound: COc1cc2c(Oc3ccc4[nH]c(C)cc4c3F)ncnc2cc1OCCCN1CCCC1 [Cediranib/AZD2171]
Ceritinib/LDK378 = compound: Cc1cc(Nc2ncc(Cl)c(Nc3ccccc3S(=O)(=O)C(C)C)n2)c(OC(C)C)cc1C1CCNCC1 [Ceritinib/LDK378]
Dasatinib = compound: Cc1nc(Nc2ncc(C(=O)Nc3c(C)cccc3Cl)s2)cc(N2CCN(CCO)CC2)n1 [Dasatinib]
[2] = compound: Cc1nn(C)c(COc2ccc(N3CCN(S(=O)(=O)N(C)C)CC3)cc2)c1-c1cccc2c(CCCOc3cccc4ccccc34)c(C(=O)O)n(CCN3CCOCC3)c12

AU565
GR value (FMF-03-146-1; 0.1 µM): 0.928 GR
GR value (FMF-03-146-1; 0.3162 µM): 0.924 GR
GR value (FMF-03-146-1; 1 µM): 0.874 GR
GR value (FMF-03-146-1; 3.162 µM): 0.894 GR
GR value (FMF-03-146-1; 10 µM): 0.695 GR
GR value ([1]; 0.001 µM): 0.974 GR
GR value ([1]; 0.003162 µM): 0.901 GR
GR value ([1]; 0.01 µM): 0.723 GR
GR value ([1]; 0.03162 µM): 0.933 GR
GR value ([1]; 0.1 µM): 0.894 GR
GR value ([1]; 0.3162 µM): 0.766 GR
GR value ([1]; 1 µM): 0.655 GR
GR value ([1]; 3.162 µM): 0.747 GR
GR value ([1]; 10 µM): 0.392 GR
GR value (Cediranib/AZD2171; 0.001 µM): 1.04 GR
GR value (Cediranib/AZD2171; 0.003162 µM): 0.989 GR
GR value (Cediranib/AZD2171; 0.01 µM): 1.07 GR
GR value (Cediranib/AZD2171; 0.03162 µM): 1.07 GR
GR value (Cediranib/AZD2171; 0.1 µM): 1.06 GR
GR value (Cediranib/AZD2171; 0.3162 µM): 1.22 GR
GR value (Cediranib/AZD2171; 1 µM): 1.2 GR
GR value (Cediranib/AZD2171; 3.162 µM): 1.08 GR
GR value (Cediranib/AZD2171; 10 µM): 0.941 GR
GR value (Ceritinib/LDK378; 0.001 µM): 1.01 GR
GR value (Ceritinib/LDK378; 0.003162 µM): 0.971 GR
GR value (Ceritinib/LDK378; 0.01 µM): 1 GR
GR value (Ceritinib/LDK378; 0.03162 µM): 1.01 GR
GR value (Ceritinib/LDK378; 0.1 µM): 0.983 GR
GR value (Ceritinib/LDK378; 0.3162 µM): 0.993 GR
GR value (Ceritinib/LDK378; 1 µM): 0.887 GR
GR value (Ceritinib/LDK378; 3.162 µM): 0.479 GR
GR value (Dasatinib; 0.001 µM): 0.873 GR
GR value (Dasatinib; 0.003162 µM): 0.908 GR
GR value (Dasatinib; 0.01 µM): 0.966 GR
GR value (Dasatinib; 0.03162 µM): 0.961 GR
GR value (Dasatinib; 0.1 µM): 0.877 GR
GR value (Dasatinib; 0.3162 µM): 0.963 GR
GR value (Dasatinib; 1 µM): 0.875 GR
GR value (Dasatinib; 3.162 µM): 0.73 GR
GR value (Dasatinib; 10 µM): 0.274 GR
GR value ([2]; 0.001 µM): 1.03 GR
GR value ([2]; 0.003162 µM): 1.04 GR
GR value ([2]; 0.01 µM): 1.09 GR
GR value ([2]; 0.03162 µM): 1.03 GR
GR value ([2]; 0.1 µM): 1.06 GR
GR value ([2]; 0.3162 µM): 1.05 GR
GR value ([2]; 1 µM): 1.03 GR
GR value ([2]; 3.162 µM): 1.05 GR
GR value ([2]; 10 µM): 0.613 GR
